In US7452902B2, “Imidazopyridines as cyclin dependent kinase inhibitors” (Schering Corporation, priority 2002, dated 2008):

Target: T1, Cyclin E/CDK2 (Homo sapiens, UniProt P24941)
T1 construct: The expressed protein was approximately 34 kDa in size; made in house; host or cells: SF9 insect cells (baculovirus, pVL1393)
Test: Cyclin E/CDK2 in vitro kinase assay (SPA, 33P-ATP, biotinylated Histone H1 peptide)
Type: biochemical
Conditions: recombinant cyclin E/CDK2 from SF9 cells; 1 hour at room temperature; 8 point serial dilutions in duplicate

Which IC50 does the source give for `Brc1cnc2c(NCc3cncnc3)cc(-c3ccccc3)cn12` here?
Its IC50 is 120 nM.

With `Clc1ccccc1-c1cc(NCc2cncnc2)c2ncc(Br)n2c1` as the compound, how does the IC50 read?
The IC50 was 36 nM.

How did the IC50 turn out when `Nc1ncc(CNc2cc(-c3ccccc3Cl)cn3c(Br)cnc23)cn1` was run?
The IC50 was 76 nM.
